In the NIST ThermoML archive (doi:10.1021/je501085y):
Numbers after ± are expanded uncertainties.

Assays:
[1] = 293.15 K; 101.33 kPa; Liquid; Vibrating tube method
[2] = refractive index (Na D-line) (dimensionless); details: 293.15 K; 101.33 kPa; Liquid; Standard Abbe refractometry

mass density [1]	refractive index [2]	SMILES
860.43 ± 0.12 kg/m3	1.4187 ± 0.0007	COC1CCCC1 [methoxycyclopentane]
1051.22 ± 0.1 kg/m3	1.4223 ± 0.0007	C=CC(=O)O [propenoic acid]
